This experiment concerns the target T1, TbPFK (Trypanosoma brucei brucei, UniProt O15648).
T1 construct: made in house; host or cells: Escherichia coli C41 (pET28a, codon optimised gene)
T1 sequence (O15648 1-487): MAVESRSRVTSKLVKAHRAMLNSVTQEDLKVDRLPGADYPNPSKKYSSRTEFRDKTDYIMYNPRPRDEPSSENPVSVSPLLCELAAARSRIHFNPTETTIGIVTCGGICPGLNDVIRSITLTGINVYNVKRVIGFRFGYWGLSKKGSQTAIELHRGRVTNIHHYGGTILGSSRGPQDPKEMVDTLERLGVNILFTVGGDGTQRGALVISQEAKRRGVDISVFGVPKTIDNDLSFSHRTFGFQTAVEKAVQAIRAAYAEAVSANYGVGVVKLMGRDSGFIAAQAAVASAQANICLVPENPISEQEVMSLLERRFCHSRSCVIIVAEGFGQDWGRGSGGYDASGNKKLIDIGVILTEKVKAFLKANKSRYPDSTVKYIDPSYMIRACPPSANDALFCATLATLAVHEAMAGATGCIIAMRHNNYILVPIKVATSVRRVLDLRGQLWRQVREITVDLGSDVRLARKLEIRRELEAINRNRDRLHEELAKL
Briefly: Surface plasmon resonance (SPR). The class given is binding. The procedure:
SPR measurements were performed using a BIAcore T200 instrument (GE Healthcare). Active N-terminally His6-tagged TbPFK surfaces were generated using a His-tag capture and coupling onto Ni^2+‐nitrilotriacetic acid sensor chips. Following Ni^2+ priming (30 s injection of 500 μM NiCl2 at 5 μl min^−1), dextran surface carboxylate groups were minimally activated by an injection of 0.2 M EDC; 50 mM NHS at 5 μl min^−1 for 240 s. TbPFK (at concentrations between 10 and 400 nM), in 10 mM NaH2PO4, pH 7.5; 150 mM NaCl; 50 μM EDTA; 0.05% surfactant p20, was captured via the hexa-His-tag and simultaneously covalently stabilised to between 1500 RU and 3100 RU, by varying the contact time. Immediately following the capture/stabilisation a single 15 s injection of 350 mM EDTA and 50 mM imidazole in 10 mM NaH2PO4, pH 7.5; 150 mM NaCl; 50 mM EDTA; 0.05% surfactant p20, at 30 μl min^−1, was used to remove non-covalently bound protein, followed by a 180 s injection of 1 M H2N(CH2)2OH, pH 8.5 at 5 μl min^−1.
Active N-terminally His6-tagged TbPFK surfaces were generated using a His-tag capture and coupling method described previously (2). The surface density on the SPR chip = 1500 RU. A 1:1 binding model has been fitted to each sensorgram trace (black). All measurements were at 25 °C. […] Source data are provided as a Source Data file.

Compound `CN(C)CCn1ccc2c(ccn2Cc2ccc(Cl)c(Cl)c2)c1=O` [CTCB-405, 1-[(3,4-Dichlorophenyl)methyl]-5-[2-(dimethylamino)ethyl] pyrrolo[3,2-c]pyridin-4-one] displayed a koff of 0.079 s⁻¹ and a kon of 960000 M⁻¹ s⁻¹. The affinity (25 °C), expressed as Kd, was 82 nM.

(Values after publication PMC7887271, “Fast acting allosteric phosphofructokinase inhibitors block trypanosome glycolysis and cure acute African trypanosomiasis in mice” (Nature Communications, 2021).)
